Source: patent US20230011869A1 (Hoffmann-La Roche Inc., priority 2018, published 2023)
Counter-ions that a name gives are not always drawn.

test system: Acinetobacter baumannii ATCC17978; experiment: Antimicrobial susceptibility testing: 90% growth inhibitory concentration (IC90) determination, Iso-Sensitest broth; assay type: cell-based; conditions: 90% growth inhibitory concentration, Acinetobacter baumannii ATCC17978, Iso-Sensitest broth, OD 600 nm over 16 h; read-out: ATCC17978 IC90
Procedure, shortened: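 A. baumannii ATCC17978 grown in Iso-Sensitest broth across 10 compound concentrations at 35±2 °C.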

Compound | IC90
COc1ccc(-c2cnc3c(Nc4ccc(C(=O)N5CCN[C@H](CO)C5)c(C)c4)nccn23)cc1F [Example 419, [4-[[3-(3-fluoro-4-methoxyphenyl)imidazo[1,2-a]pyrazin-8-yl]amino]-2-methylphenyl]-[(3S)-3-(hydroxymethyl)piperazin-1-yl]methanone] | 1000 nM
COc1ccc(-c2cnc3c(Nc4ccc(C(=O)N5CCNC(CO)C5)c(C)c4)nccn23)cc1F (centres unmarked) [Example 422, [4-[[3-(3-fluoro-4-methoxyphenyl)imidazo[1,2-a]pyrazin-8-yl]amino]-2-methylphenyl]-[3-(hydroxymethyl)piperazin-1-yl]methanone] | 1100 nM
COc1ccc(-c2cnc3c(Nc4ccc(C(=O)N5CC[C@@H](N)[C@@H](O)C5)c(C)c4)nccn23)cc1F [Example 423, [(3S,4R)-4-amino-3-hydroxypiperidin-1-yl]-[4-[[3-(3-fluoro-4-methoxyphenyl)imidazo[1,2-a]pyrazin-8-yl]amino]-2-methylphenyl]methanone; hy-drochloride] | 1100 nM
COc1ccc(-c2cnc3c(Nc4ccc(C(=O)N5CCNC(C6CC6)C5)c(C)c4)nccn23)cc1F (centres unmarked) [Example 424, (3-cyclopropylpiperazin-1-yl)-[4-[[3-(3-fluoro-4-methoxyphenyl)imidazo[1,2-a]pyrazin-8-yl]amino]-2-methylphenyl]methanone; hy-drochloride] | 1200 nM
COc1ccc(-c2cnc3c(Nc4ccc(C(=O)N5C[C@@H](O)[C@H](O)C5)c(C)c4)nccn23)cc1F [Example 425, [(3R,4R)-3,4-dihydroxypyrrolidin-1-yl]-[4-[[3-(3-fluoro-4-methoxyphenyl)imidazo[1,2-a]pyrazin-8-yl]amino]-2-methylphenyl]methanone] | 1200 nM
COc1ccc(-c2cnc3c(Nc4ccc(C(=O)N5CCN(C6CC6)CC5)c(C)c4)nccn23)cc1F [Example 426, (4-cyclopropylpiperazin-1-yl)-[4-[[3-(3-fluoro-4-methoxyphenyl)imidazo[1,2-a]pyrazin-8-yl]amino]-2-methylphenyl]methanone] | 1200 nM
COc1ccc(-c2cnc3c(Nc4ccc(C(=O)N5CCC(C(=O)NCc6ccc(C(=O)O)cc6)CC5)c(C)c4)nccn23)cc1F [Example 427, 4-[[[1-[4-[[3-(3-fluoro-4-methoxyphenyl)imidazo[1,2-a]pyrazin-8-yl]amino]-2-methylbenzoyl]piperidine-4-carbonyl]amino]methyl]ben-zoic acid] | 1200 nM
Cc1cc(Nc2nccn3c(-c4ccc(O)c(F)c4)cnc23)ccc1C(=O)N1CCC(CN)CC1 [Example 428, [4-(aminomethyl)piperidin-1-yl]-[4-[[3-(3-fluoro-4-hydroxyphenyl)imidazo[1,2-a]pyrazin-8-yl]amino]-2-methylphenyl]methanone] | 1300 nM
COc1ccc(-c2cnc3c(Nc4ccc(C(=O)N5CCC(C(=O)N(C)C[C@H](O)[C@@H](O)[C@H](O)[C@H](O)CO)CC5)c(C)c4)nccn23)cc1F [Example 432, 1-[4-[[3-(3-fluoro-4-methoxyphenyl)imidazo[1,2-a]pyrazin-8-yl]amino]-2-methylbenzoyl]-N-methyl-N-[(2S,3R,4R,5R)-2,3,4,5,6-pentahydroxyhexyl]piperidine-4-carboxamide] | 1500 nM
COc1ccc(-c2cnc3c(Nc4ccc(C(=O)N5CCC(C(=O)NC6(C(=O)O)CC6)CC5)c(C)c4)nccn23)cc1F [Example 433, 1-[[1-[4-[[3-(3-fluoro-4-methoxyphenyl)imidazo[1,2-a]pyrazin-8-yl]amino]-2-methylbenzoyl]piperidine-4-carbonyl]amino]cyclopropane-1-carboxylic acid] | 1600 nM
COc1ccc(-c2cnc3c(Nc4ccc(C(=O)N5CC6(C5)CN(C5CC5)C6)c(C)c4)nccn23)cc1F [Example 434, (6-cyclopropyl-2,6-diazaspiro[3.3]heptan-2-yl)-[4-[[3-(3-fluoro-4-methoxyphenyl)imidazo[1,2-a]pyrazin-8-yl]amino]-2-methylphenyl]methanone] | 1800 nM
COc1ccc(-c2cnc3c(Nc4ccc(C(=O)N5CCC(CNCCC(=O)O)CC5)c(C)c4)nccn23)cc1 [Example 435, 3-[[1-[4-[[3-(4-methoxyphenyl)imidazo[1,2-a]pyrazin-8-yl]amino]-2-methylbenzoyl]piperidin-4-yl]methylamino]propanoic acid] | 3200 nM
Cc1cc(Nc2nccn3c(-c4ccc(OCC#N)c(F)c4F)cnc23)ccc1C(=O)N1CCN(C(=O)N2CCN[C@H](C(=O)O)C2)CC1 [Example 442, (2S)-4-[4-[4-[[3-[4-(cyanomethoxy)-2,3-difluorophenyl]imidazo[1,2-a]pyrazin-8-yl]amino]-2-methylbenzoyl]piperazine-1-carbonyl]piperazine-2-carboxylic acid] | 1200 nM
Cc1cc(Nc2nccn3c(-c4ccc(OS(C)(=O)=O)c(F)c4F)cnc23)ccc1C(=O)N1CCN(C(=O)C2CCNCC2)CC1 [Example 446, [2,3-difluoro-4-[8-[3-methyl-4-[4-(piperidine-4-carbonyl)piperazine-1-carbonyl]anilino]imidazo[1,2-a]pyrazin-3-yl]phenyl] methanesulfonate] | 2000 nM
Cc1cc(Nc2nccn3c(-c4ccc(OCC#N)c(F)c4F)cnc23)ccc1C(=O)N1CCN(C(=O)N2CCN[C@@H](C(=O)O)C2)CC1 [Example 450, (2R)-4-[4-[4-[[3-[4-(cyanomethoxy)-2,3-difluorophenyl]imidazo[1,2-a]pyrazin-8-yl]amino]-2-methylbenzoyl]piperazine-1-carbonyl]piperazine-2-carboxylic acid] | 2400 nM
CCc1cc(Nc2nccn3c(-c4ccc(OS(C)(=O)=O)c(F)c4F)cnc23)ccc1C(=O)N1CCN(C(=O)C2CCNCC2)CC1 [Example 451, [4-[8-[3-ethyl-4-[4-(piperidine-4-carbonyl)piperazine-1-carobnyl]anilino]imidazo[1,2-a]pyrazin-3-yl]-2,3-difluorophenyl] methanesulfonate; formic acid] | 2700 nM

same assay, conditions: Acinetobacter baumannii, ATCC17978, 16 h, read-out: ATCC17978 IC90, 90% growth inhibitory concentration, Acinetobacter baumannii ATCC17978, Iso-Sensitest broth, OD 600 nm over 16 h

Compound | IC90
COc1ccc(-c2cnc3c(Nc4ccc(C(=O)N5CCC(CNC(CN)C(=O)O)CC5)c(C)c4)nccn23)cc1 (centres unmarked) [Example 420, 3-amino-2-[[1-[4-[[3-(4-methoxyphenyl)imidazo[1,2-a]pyrazin-8-yl]amino]-2-methylbenzoyl]piperidin-4-yl]methylamino]propanoic acid; formic acid] | 1100 nM
COc1ccc(-c2cnc3c(Nc4ccc(C(=O)N5CC6(CCN6)C5)c(C)c4)nccn23)cc1F [Example 421, 1,6-diazaspiro[3.3]heptan-6-yl-[4-[[3-(3-fluoro-4-methoxyphenyl)imidazo[1,2-a]pyrazin-8-yl]amino]-2-methylphenyl]methanone; 2,2,2-trifluoroacetic acid] | 1100 nM
COc1ccc(-c2cnc3c(Nc4ccc(C(=O)N5CCC(CNCC(=O)O)CC5)c(C)c4)nccn23)cc1 [Example 431, formic acid; 2-[[1-[4-[[3-(4-methoxyphenyl)imidazo[1,2-a]pyrazin-8-yl]amino]-2-methylbenzoyl]piperidin-4-yl]methylamino]acetic acid] | 1500 nM
COc1ccc(-c2cnc3c(Nc4ccc(C(=O)N5CCN(C(=O)N6CCN[C@@H](C(=O)O)C6)CC5)c(C)c4)nccn23)c(F)c1F [Example 436, (2R)-4-[4-[4-[[3-(2,3-difluoro-4-methoxyphenyl)imidazo[1,2-a]pyrazin-8-yl]amino]-2-methylbenzoyl]piperazine-1-carbonyl]piperazine-2-carboxylic acid; formic acid] | 760 nM
Cc1cc(Nc2nccn3c(-c4ccc(OC(F)F)cc4)cnc23)ccc1C(=O)N1CCN(C(=O)[C@@H](N)Cc2cnc[nH]2)CC1 [Example 437, (2S)-2-amino-1-[4-[4-[[3-[4-(difluoromethoxy)phenyl]imi-dazo[1,2-a]pyrazin-8-yl]amino]-2-methylbenzoyl]piperazin-1-yl]-3-(1H-imidazol-5-yl)propan-1-one; hydrochloride] | 770 nM
Cc1cc(Nc2nccn3c(-c4ccc(OC(F)F)cc4)cnc23)ccc1C(=O)N1CCN(C(=O)[C@@H]2CNCCN2)CC1 [Example 441, [4-[[3-[4-(difluoromethoxy)phenyl]imi-dazo[1,2-a]pyrazin-8-yl]amino]-2-methylphenyl]-[4-[(2S)-piperazine-2-carbonyl]piperazin-1-yl]methanone; hydrochloride] | 1200 nM
COC(=O)CC[C@H](N)C(=O)N1CCN(C(=O)c2ccc(Nc3nccn4c(-c5ccc(OC(F)F)cc5)cnc34)cc2C)CC1 [Example 444, methyl (4S)-4-amino-5-[4-[4-[[3-[4-(difluoromethoxy)phenyl]imi-dazo[1,2-a]pyrazin-8-yl]amino]-2-methylbenzoyl]piperazin-1-yl]-5-oxopentanoate; hydrochloride] | 1900 nM
Cc1cc(Nc2nccn3c(-c4ccc(OC(F)F)cc4)cnc23)ccc1C(=O)N1CCN(C(=O)N2CCN[C@@H](C(=O)O)C2)CC1 [Example 445, (2R)-4-[4-[4-[[3-[4-(difluoromethoxy)phenyl]imi-dazo[1,2-a]pyrazin-8-yl]amino]-2-methylbenzoyl]piperazine-1-carbonyl]piperazine-2-carboxylic acid; hydrochloride] | 1900 nM
Cc1cc(Nc2nccn3c(-c4ccc(OC(F)F)cc4)cnc23)ccc1C(=O)N1CCN(C(=O)C2=CCNCC2)CC1 [Example 447, [4-[[3-[4-(difluoromethoxy)phenyl]imi-dazo[1,2-a]pyrazin-8-yl]amino]-2-methylphenyl]-[4-(1,2,3,6-tetrahydropyridine-4-carbonyl)piperazin-1-yl]methanone; hydrochloride] | 2000 nM
Cc1cc(Nc2nccn3c(-c4ccc(OC(F)F)cc4)cnc23)ccc1C(=O)N1CCN(C(=O)[C@@H](N)CC(=O)O)CC1 [Example 448, (3S)-3-amino-4-[4-[4-[[3-[4-(difluoromethoxy)phenyl]imi-dazo[1,2-a]pyrazin-8-yl]amino]-2-methylbenzoyl]piperazin-1-yl]-4-oxobutanoic acid; hydrochloride] | 2200 nM
